In publication PMC5218480 (PLoS ONE, 2017):

Test system: MV-4-11 cells
Assay: Gene expression microarray analysis (Affymetrix PrimeView) and GSEA
Format: cell-based, human
Parameters: RFU PODN (11730768_x_at) / Fold change /veh PODN (11730768_x_at) / RFU LINC00158 (11744669_a_at) / Fold change /veh LINC00158 (11744669_a_at) / RFU DUSP10 (11751237_a_at) / Fold change /veh DUSP10 (11751237_a_at) / RFU ID3 (11757404_x_at) / Fold change /veh ID3 (11757404_x_at) / RFU PLEKHG5 (11737974_s_at) / Fold change /veh PLEKHG5 (11737974_s_at) / RFU LRRC4B (11730491_at) / Fold change /veh LRRC4B (11730491_at) / RFU GIMAP4 (11747438_a_at) / Fold change /veh GIMAP4 (11747438_a_at) / RFU KRT8 (11758183_x_at) / Fold change /veh KRT8 (11758183_x_at) / RFU CNN1 (11734310_a_at) / Fold change /veh CNN1 (11734310_a_at) / RFU VPS37D (11726825_at) / Fold change /veh VPS37D (11726825_at) / RFU C10orf10 (11716522_x_at) / Fold change /veh C10orf10 (11716522_x_at) / RFU KIR2DL2 /// KIR2DL4 /// KIR2DL5A /// KIR2DL5B /// KIR2DS1 /// KIR2DS2 /// KIR2DS3 /// KIR2DS4 /// KIR3DL3 /// KIR3DL3 /// KIR3DS1 (11738374_at) / Fold change /veh KIR2DL2 /// KIR2DL4 /// KIR2DL5A /// KIR2DL5B /// KIR2DS1 /// KIR2DS2 /// KIR2DS3 /// KIR2DS4 /// KIR3DL3 /// KIR3DL3 /// KIR3DS1 (11738374_at) / RFU C1QL1 (11718748_at) / Fold change /veh C1QL1 (11718748_at) / RFU TMPRSS4 (11747572_a_at) / Fold change /veh TMPRSS4 (11747572_a_at) / RFU HAMP (11756126_x_at) / Fold change /veh HAMP (11756126_x_at) / RFU RNFT2 (11725882_a_at) / Fold change /veh RNFT2 (11725882_a_at) / RFU NR4A2 (11747474_a_at) / Fold change /veh NR4A2 (11747474_a_at) / RFU ABCC12 (11746883_a_at) / Fold change /veh ABCC12 (11746883_a_at) / RFU TMEM136 (11760407_x_at) / Fold change /veh TMEM136 (11760407_x_at) / RFU CLDN22 /// WWC2 (11732394_at) / Fold change /veh CLDN22 /// WWC2 (11732394_at) / RFU HLA-DPB1 (11760878_x_at) / Fold change /veh HLA-DPB1 (11760878_x_at) / RFU SPINT1 (11716480_a_at) / Fold change /veh SPINT1 (11716480_a_at) / RFU GAP43 (11754022_s_at) / Fold change /veh GAP43 (11754022_s_at) / RFU A4GNT (11735810_at) / Fold change /veh A4GNT (11735810_at) / RFU PRB3 (11715151_x_at) / Fold change /veh PRB3 (11715151_x_at) / RFU TUBB4B (11761932_at) / Fold change /veh TUBB4B (11761932_at) / RFU CAPN14 (11732068_a_at) / Fold change /veh CAPN14 (11732068_a_at) / RFU TMCC2 (11721928_a_at) / Fold change /veh TMCC2 (11721928_a_at) / RFU IRGQ (11745062_a_at) / Fold change /veh IRGQ (11745062_a_at) / RFU FAM174B (11720279_a_at) / Fold change /veh FAM174B (11720279_a_at) / RFU TMPRSS4 (11748680_a_at) / Fold change /veh TMPRSS4 (11748680_a_at) / RFU FAM212B (11763350_a_at) / Fold change /veh FAM212B (11763350_a_at) / RFU PLEKHG5 (11743358_a_at) / Fold change /veh PLEKHG5 (11743358_a_at) / RFU ZSCAN30 (11745921_a_at) / Fold change /veh ZSCAN30 (11745921_a_at) / RFU CMKLR1 (11741424_a_at) / Fold change /veh CMKLR1 (11741424_a_at) / RFU LOC101060620 /// MAPK8IP1 (11723275_at) / Fold change /veh LOC101060620 /// MAPK8IP1 (11723275_at) / RFU SPTSSB (11747773_x_at) / Fold change /veh SPTSSB (11747773_x_at) / RFU PRSS12 (11739890_at) / Fold change /veh PRSS12 (11739890_at) / RFU BIN1 (11741810_x_at) / Fold change /veh BIN1 (11741810_x_at) / RFU WNT11 (11732464_a_at) / Fold change /veh WNT11 (11732464_a_at) / RFU C10orf10 (11716521_a_at) / Fold change /veh C10orf10 (11716521_a_at) / RFU C5orf56 (11738089_at) / Fold change /veh C5orf56 (11738089_at) / RFU CYB561 (11721691_x_at) / Fold change /veh CYB561 (11721691_x_at) / RFU ANKRD19P (11752326_a_at) / Fold change /veh ANKRD19P (11752326_a_at) / RFU OR2T12 /// OR2T33 /// OR2T8 (11738714_s_at) / Fold change /veh OR2T12 /// OR2T33 /// OR2T8 (11738714_s_at) / RFU VCAN (11748164_a_at) / Fold change /veh VCAN (11748164_a_at) / RFU JSRP1 (11732532_at) / Fold change /veh JSRP1 (11732532_at) / RFU KRTAP10-11 (11738290_x_at) / Fold change /veh KRTAP10-11 (11738290_x_at) / RFU MYO3A (11730013_a_at) / Fold change /veh MYO3A (11730013_a_at) / RFU EBF3 (11725865_a_at) / Fold change /veh EBF3 (11725865_a_at) / RFU CAMK2N1 (11719241_x_at) / Fold change /veh CAMK2N1 (11719241_x_at) / RFU C5orf56 (11738088_a_at) / Fold change /veh C5orf56 (11738088_a_at) / RFU OLFML3 (11715873_a_at) / Fold change /veh OLFML3 (11715873_a_at) / RFU LOC100653217 /// NTM (11731650_a_at) / Fold change /veh LOC100653217 /// NTM (11731650_a_at) / RFU MAPK11 (11762145_a_at) / Fold change /veh MAPK11 (11762145_a_at) / RFU FIZ1 (11724087_x_at) / Fold change /veh FIZ1 (11724087_x_at) / RFU OASL (11726364_x_at) / Fold change /veh OASL (11726364_x_at) / RFU SOX15 (11748057_x_at) / Fold change /veh SOX15 (11748057_x_at) / RFU CD79A (11719716_a_at) / Fold change /veh CD79A (11719716_a_at) / RFU HIST1H1D (11736915_at) / Fold change /veh HIST1H1D (11736915_at) / RFU CASKIN2 (11723855_a_at) / Fold change /veh CASKIN2 (11723855_a_at) / RFU LOC730098 (11760151_x_at) / Fold change /veh LOC730098 (11760151_x_at) / RFU OR4N2 (11742367_at) / Fold change /veh OR4N2 (11742367_at) / RFU PRRT2 (11749266_a_at) / Fold change /veh PRRT2 (11749266_a_at) / RFU SNX32 (11753110_a_at) / Fold change /veh SNX32 (11753110_a_at) / RFU CDHR5 (11726645_a_at) / Fold change /veh CDHR5 (11726645_a_at) / RFU RCAN1 (11760418_a_at) / Fold change /veh RCAN1 (11760418_a_at) / RFU FAM167A (11723789_a_at) / Fold change /veh FAM167A (11723789_a_at) / RFU FAM26E (11764081_at) / Fold change /veh FAM26E (11764081_at) / RFU ISYNA1 (11749810_s_at) / Fold change /veh ISYNA1 (11749810_s_at) / RFU ACY1 (11761880_at) / Fold change /veh ACY1 (11761880_at) / RFU 11764098_at / Fold change /veh 11764098_at / RFU SAMD14 (11745864_x_at) / Fold change /veh SAMD14 (11745864_x_at) / RFU NPB (11741838_a_at) / Fold change /veh NPB (11741838_a_at) / RFU TMPRSS6 (11731388_a_at) / Fold change /veh TMPRSS6 (11731388_a_at) / RFU KRTAP10-2 (11738614_at) / Fold change /veh KRTAP10-2 (11738614_at) / RFU ARHGAP8 /// PRR5-ARHGAP8 (11727945_x_at) / Fold change /veh ARHGAP8 /// PRR5-ARHGAP8 (11727945_x_at) / RFU KRTAP5-7 /// NADSYN1 (11734609_at) / Fold change /veh KRTAP5-7 /// NADSYN1 (11734609_at) / RFU RASL12 (11751679_a_at) / Fold change /veh RASL12 (11751679_a_at) / RFU CDKN2B (11736163_a_at) / Fold change /veh CDKN2B (11736163_a_at) / RFU PRF1 (11729649_at) / Fold change /veh PRF1 (11729649_at) / RFU, ZNF638 /// ZNF638-IT1 / Fold change vs veh, ZNF638 /// ZNF638-IT1 / RFU, PANK3 / Fold change vs veh, PANK3 / RFU, SH3YL1 / Fold change vs veh, SH3YL1 / RFU, ZEB2 / Fold change vs veh, ZEB2 / RFU, NRIP1 / Fold change vs veh, NRIP1 / RFU, PTTG1IP / Fold change vs veh, PTTG1IP / RFU, CAPN2 / Fold change vs veh, CAPN2 / RFU, MED14 / Fold change vs veh, MED14 / RFU, SNORA58 / Fold change vs veh, SNORA58 / RFU, C1orf63 / Fold change vs veh, C1orf63 / RFU, LRRFIP1 / Fold change vs veh, LRRFIP1 / RFU, NDUFAF7 / Fold change vs veh, NDUFAF7 / RFU, SLC12A2 / Fold change vs veh, SLC12A2 / RFU, IBTK / Fold change vs veh, IBTK / RFU, ESF1 / Fold change vs veh, ESF1 / Fold change vs veh, TMEM50B / RFU, TAOK1 / Fold change vs veh, TAOK1 / RFU, ACBD3 / Fold change vs veh, ACBD3 / RFU, TMA16 / Fold change vs veh, TMA16 / RFU, RWDD3 / Fold change vs veh, RWDD3 / RFU, BCAT1 / Fold change vs veh, BCAT1 / RFU, EDEM3 / Fold change vs veh, EDEM3 / RFU, TMEM33 / Fold change vs veh, TMEM33 / RFU, WDR75 / Fold change vs veh, WDR75 / RFU, AHCTF1 / Fold change vs veh, AHCTF1 / RFU, TFRC / Fold change vs veh, TFRC / RFU, ZDHHC17 / Fold change vs veh, ZDHHC17 / RFU, NOM1 / Fold change vs veh, NOM1 / RFU, ARL8B / Fold change vs veh, ARL8B / RFU, ZBTB11 / Fold change vs veh, ZBTB11 / RFU, TAMM41 / Fold change vs veh, TAMM41 / RFU, KIAA1704 /// LOC100996395 / Fold change vs veh, KIAA1704 /// LOC100996395 / RFU, ING1 / Fold change vs veh, ING1 / RFU, TRMT61B / Fold change vs veh, TRMT61B / RFU, FUBP3 / Fold change vs veh, FUBP3 / RFU, TP53 / Fold change vs veh, TP53 / RFU, TNKS2 / Fold change vs veh, TNKS2 / RFU, ZFP14 / Fold change vs veh, ZFP14 / RFU, ACTR2 / Fold change vs veh, ACTR2 / RFU, PPP3R1 / Fold change vs veh, PPP3R1 / RFU, PIK3R1 / Fold change vs veh, PIK3R1 / RFU, HNRNPA1 / Fold change vs veh, HNRNPA1 / RFU, RNF170 / Fold change vs veh, RNF170 / RFU, ZNF28 / Fold change vs veh, ZNF28 / RFU, RNGTT / Fold change vs veh, RNGTT / RFU, OGT / Fold change vs veh, OGT / RFU, BRD1 / Fold change vs veh, BRD1 / RFU, MARS / Fold change vs veh, MARS / RFU, ZNF655 / Fold change vs veh, ZNF655 / RFU, FAHD1 / Fold change vs veh, FAHD1 / RFU, BDP1 / Fold change vs veh, BDP1 / RFU, LRRCC1 / Fold change vs veh, LRRCC1 / RFU, ARID1A / Fold change vs veh, ARID1A / RFU, ZNF146 / Fold change vs veh, ZNF146 / RFU, ZNF330 / Fold change vs veh, ZNF330 / RFU, GPN3 / Fold change vs veh, GPN3 / RFU, C9orf123 / Fold change vs veh, C9orf123 / RFU, N4BP2L2 / Fold change vs veh, N4BP2L2 / RFU, ARFIP1 / Fold change vs veh, ARFIP1 / RFU, FAM179B / Fold change vs veh, FAM179B / RFU, BCL10 / Fold change vs veh, BCL10 / RFU, UHRF1BP1L / Fold change vs veh, UHRF1BP1L / RFU, BET1 / Fold change vs veh, BET1 / RFU, CNOT2 / Fold change vs veh, CNOT2 / RFU, ZNF268 / Fold change vs veh, ZNF268 / Fold change vs veh, ZNF507 / RFU, DGCR2 / Fold change vs veh, DGCR2 / RFU, WDSUB1 / Fold change vs veh, WDSUB1 / Fold change vs veh, HSP90B1 /// MIR3652 / RFU, ADSS / Fold change vs veh, ADSS / RFU, GK / Fold change vs veh, GK / RFU, ZNF148 / Fold change vs veh, ZNF148 / RFU, TAF9 / Fold change vs veh, TAF9 / RFU, SLC1A5 / Fold change vs veh, SLC1A5 / RFU, SLMO2 / Fold change vs veh, SLMO2 / RFU, ABCC4 / Fold change vs veh, ABCC4 / RFU, LOC101060439 /// RAP1B / Fold change vs veh, LOC101060439 /// RAP1B / RFU, RFX7 / Fold change vs veh, RFX7 / RFU, GTPBP10 / Fold change vs veh, GTPBP10 / RFU, CNEP1R1 / Fold change vs veh, CNEP1R1 / RFU, BIVM-ERCC5 /// ERCC5 / Fold change vs veh, BIVM-ERCC5 /// ERCC5 / RFU, ILF3 / Fold change vs veh, ILF3 / RFU 11762660_at / Fold change /veh 11762660_at / RFU VCAN (11757783_s_at) / Fold change /veh VCAN (11757783_s_at) / RFU DDX43 (11728927_at) / Fold change /veh DDX43 (11728927_at) / RFU KRT8 (11758188_x_at) / Fold change /veh KRT8 (11758188_x_at) / RFU NKD1 (11759106_at) / Fold change /veh NKD1 (11759106_at) / RFU SRD5A1 (11742802_a_at) / Fold change /veh SRD5A1 (11742802_a_at) / RFU TPSAB1 /// TPSB2 (11721975_s_at) / Fold change /veh TPSAB1 /// TPSB2 (11721975_s_at) / RFU GSTM3 (11746129_a_at) / Fold change /veh GSTM3 (11746129_a_at) / RFU IL23R (11737362_x_at) / Fold change /veh IL23R (11737362_x_at) / RFU TMEM51 (11727254_a_at) / Fold change /veh TMEM51 (11727254_a_at) / RFU PIWIL2 (11732686_x_at) / Fold change /veh PIWIL2 (11732686_x_at) / RFU ORM1 (11744905_x_at) / Fold change /veh ORM1 (11744905_x_at) / RFU CCDC152 (11743942_at) / Fold change /veh CCDC152 (11743942_at) / RFU ECM1 (11717891_a_at) / Fold change /veh ECM1 (11717891_a_at) / RFU IL23R (11748794_a_at) / Fold change /veh IL23R (11748794_a_at) / RFU TNFAIP8L3 (11732012_x_at) / Fold change /veh TNFAIP8L3 (11732012_x_at) / RFU MBOAT4 (11741988_at) / Fold change /veh MBOAT4 (11741988_at) / RFU 11764193_at / Fold change /veh 11764193_at / RFU TMEM53 (11763286_at) / Fold change /veh TMEM53 (11763286_at) / RFU MAGEB2 (11727129_at) / Fold change /veh MAGEB2 (11727129_at) / RFU TMEM200A (11744735_a_at) / Fold change /veh TMEM200A (11744735_a_at) / RFU CCDC152 (11751479_a_at) / Fold change /veh CCDC152 (11751479_a_at) / RFU FAM211A (11726209_a_at) / Fold change /veh FAM211A (11726209_a_at) / RFU RGS16 (11746705_a_at) / Fold change /veh RGS16 (11746705_a_at) / RFU VCAN (11755009_s_at) / Fold change /veh VCAN (11755009_s_at) / RFU RHOB (11743442_s_at) / Fold change /veh RHOB (11743442_s_at) / RFU RGS16 (11720943_a_at) / Fold change /veh RGS16 (11720943_a_at) / RFU RGS16 (11720944_at) / Fold change /veh RGS16 (11720944_at) / RFU, VPS4B / Fold change vs veh, VPS4B / RFU, CREB1 / Fold change vs veh, CREB1 / RFU, DNAJC13 / Fold change vs veh, DNAJC13 / RFU, GNAQ / Fold change vs veh, GNAQ / RFU, CDK5R1 / Fold change vs veh, CDK5R1 / RFU, ZRANB3 / Fold change vs veh, ZRANB3 / RFU, CUL4A / Fold change vs veh, CUL4A / RFU, CCNY / Fold change vs veh, CCNY / RFU, UFL1 / Fold change vs veh, UFL1 / RFU, COG3 / Fold change vs veh, COG3 / RFU, DIAPH2 / Fold change vs veh, DIAPH2 / RFU, SKA2 / Fold change vs veh, SKA2 / RFU, AFF3 / Fold change vs veh, AFF3 / RFU, LMF1 / Fold change vs veh, LMF1 / RFU, IPO11 / Fold change vs veh, IPO11 / RFU, DFFB / Fold change vs veh, DFFB / RFU, FOXP1 / Fold change vs veh, FOXP1 / RFU, CARD8 / Fold change vs veh, CARD8 / RFU, STRN3 / Fold change vs veh, STRN3 / RFU, ADK / Fold change vs veh, ADK / RFU, RASSF2 / Fold change vs veh, RASSF2 / RFU, WIPF1 / Fold change vs veh, WIPF1 / RFU, LARP1B / Fold change vs veh, LARP1B / RFU, RASA1 / Fold change vs veh, RASA1 / RFU, RB1 / Fold change vs veh, RB1 / RFU, PPFIA1 / Fold change vs veh, PPFIA1 / RFU, MAT2A / Fold change vs veh, MAT2A / RFU, CCT5 / Fold change vs veh, CCT5 / RFU, WDR92 / Fold change vs veh, WDR92 / RFU, CUX1 / Fold change vs veh, CUX1 / RFU, TTC7A / Fold change vs veh, TTC7A / RFU, TMEM135 / Fold change vs veh, TMEM135 / RFU, DEPTOR / Fold change vs veh, DEPTOR / RFU, CPM / Fold change vs veh, CPM / RFU, DNAJB6 / Fold change vs veh, DNAJB6 / RFU, CACNA2D3 / Fold change vs veh, CACNA2D3 / RFU, DTX4 / Fold change vs veh, DTX4 / RFU, TFCP2 / Fold change vs veh, TFCP2 / RFU, GMCL1 /// GMCL1P1 / Fold change vs veh, GMCL1 /// GMCL1P1 / RFU, AEBP2 / Fold change vs veh, AEBP2 / RFU, SNHG1 /// SNORD22 /// SNORD25 /// SNORD26 /// SNORD27 /// SNORD28 /// SNORD29 /// SNORD31 / Fold change vs veh, SNHG1 /// SNORD22 /// SNORD25 /// SNORD26 /// SNORD27 /// SNORD28 /// SNORD29 /// SNORD31 / Fold change (Aza/veh), C12orf56 (ProbeSet 11735607_a_at) / Fold change (ACY-1035/veh), C12orf56 (ProbeSet 11735607_a_at) / Fold change (Aza/veh), FGFR1OP (ProbeSet 11751329_s_at) / Fold change (ACY-1035/veh), FGFR1OP (ProbeSet 11751329_s_at) / Fold change (Aza/veh), VPS36 (ProbeSet 11739960_a_at) / Fold change (ACY-1035/veh), VPS36 (ProbeSet 11739960_a_at) / RFU SYPL1 (11715823_x_at) / Fold change /veh SYPL1 (11715823_x_at) / RFU IGFBP7 (11715501_s_at) / Fold change /veh IGFBP7 (11715501_s_at) / RFU REEP3 (11722064_at) / Fold change /veh REEP3 (11722064_at) / RFU IGLL1 (11728026_x_at) / Fold change /veh IGLL1 (11728026_x_at): dose or concentration left out as unconfirmed
Conditions: MV-4-11 cells, 48 hours

SMILES: Nc1ncn([C@@H]2O[C@H](CO)[C@@H](O)[C@H]2O)c(=O)n1 [azacitidine]
- RFU CLDN22 /// WWC2 (11732394_at): 8.78 RFU
